Results reported in patent US9139566B2, “Fluorine-18 and carbon-11 labeled radioligands for positron emission tomography (PET) imaging for LRRK2” (Genentech, Inc., priority 2011, dated 2015).

Molecular target: LRRK2 (Homo sapiens, UniProt Q5S007)
Test: LRRK2 affinity (Ki)
Assay type: binding
Settings: LRRK2 affinity (micromolar), Table 1

Chain of LRRK2 (Q5S007 whole entry): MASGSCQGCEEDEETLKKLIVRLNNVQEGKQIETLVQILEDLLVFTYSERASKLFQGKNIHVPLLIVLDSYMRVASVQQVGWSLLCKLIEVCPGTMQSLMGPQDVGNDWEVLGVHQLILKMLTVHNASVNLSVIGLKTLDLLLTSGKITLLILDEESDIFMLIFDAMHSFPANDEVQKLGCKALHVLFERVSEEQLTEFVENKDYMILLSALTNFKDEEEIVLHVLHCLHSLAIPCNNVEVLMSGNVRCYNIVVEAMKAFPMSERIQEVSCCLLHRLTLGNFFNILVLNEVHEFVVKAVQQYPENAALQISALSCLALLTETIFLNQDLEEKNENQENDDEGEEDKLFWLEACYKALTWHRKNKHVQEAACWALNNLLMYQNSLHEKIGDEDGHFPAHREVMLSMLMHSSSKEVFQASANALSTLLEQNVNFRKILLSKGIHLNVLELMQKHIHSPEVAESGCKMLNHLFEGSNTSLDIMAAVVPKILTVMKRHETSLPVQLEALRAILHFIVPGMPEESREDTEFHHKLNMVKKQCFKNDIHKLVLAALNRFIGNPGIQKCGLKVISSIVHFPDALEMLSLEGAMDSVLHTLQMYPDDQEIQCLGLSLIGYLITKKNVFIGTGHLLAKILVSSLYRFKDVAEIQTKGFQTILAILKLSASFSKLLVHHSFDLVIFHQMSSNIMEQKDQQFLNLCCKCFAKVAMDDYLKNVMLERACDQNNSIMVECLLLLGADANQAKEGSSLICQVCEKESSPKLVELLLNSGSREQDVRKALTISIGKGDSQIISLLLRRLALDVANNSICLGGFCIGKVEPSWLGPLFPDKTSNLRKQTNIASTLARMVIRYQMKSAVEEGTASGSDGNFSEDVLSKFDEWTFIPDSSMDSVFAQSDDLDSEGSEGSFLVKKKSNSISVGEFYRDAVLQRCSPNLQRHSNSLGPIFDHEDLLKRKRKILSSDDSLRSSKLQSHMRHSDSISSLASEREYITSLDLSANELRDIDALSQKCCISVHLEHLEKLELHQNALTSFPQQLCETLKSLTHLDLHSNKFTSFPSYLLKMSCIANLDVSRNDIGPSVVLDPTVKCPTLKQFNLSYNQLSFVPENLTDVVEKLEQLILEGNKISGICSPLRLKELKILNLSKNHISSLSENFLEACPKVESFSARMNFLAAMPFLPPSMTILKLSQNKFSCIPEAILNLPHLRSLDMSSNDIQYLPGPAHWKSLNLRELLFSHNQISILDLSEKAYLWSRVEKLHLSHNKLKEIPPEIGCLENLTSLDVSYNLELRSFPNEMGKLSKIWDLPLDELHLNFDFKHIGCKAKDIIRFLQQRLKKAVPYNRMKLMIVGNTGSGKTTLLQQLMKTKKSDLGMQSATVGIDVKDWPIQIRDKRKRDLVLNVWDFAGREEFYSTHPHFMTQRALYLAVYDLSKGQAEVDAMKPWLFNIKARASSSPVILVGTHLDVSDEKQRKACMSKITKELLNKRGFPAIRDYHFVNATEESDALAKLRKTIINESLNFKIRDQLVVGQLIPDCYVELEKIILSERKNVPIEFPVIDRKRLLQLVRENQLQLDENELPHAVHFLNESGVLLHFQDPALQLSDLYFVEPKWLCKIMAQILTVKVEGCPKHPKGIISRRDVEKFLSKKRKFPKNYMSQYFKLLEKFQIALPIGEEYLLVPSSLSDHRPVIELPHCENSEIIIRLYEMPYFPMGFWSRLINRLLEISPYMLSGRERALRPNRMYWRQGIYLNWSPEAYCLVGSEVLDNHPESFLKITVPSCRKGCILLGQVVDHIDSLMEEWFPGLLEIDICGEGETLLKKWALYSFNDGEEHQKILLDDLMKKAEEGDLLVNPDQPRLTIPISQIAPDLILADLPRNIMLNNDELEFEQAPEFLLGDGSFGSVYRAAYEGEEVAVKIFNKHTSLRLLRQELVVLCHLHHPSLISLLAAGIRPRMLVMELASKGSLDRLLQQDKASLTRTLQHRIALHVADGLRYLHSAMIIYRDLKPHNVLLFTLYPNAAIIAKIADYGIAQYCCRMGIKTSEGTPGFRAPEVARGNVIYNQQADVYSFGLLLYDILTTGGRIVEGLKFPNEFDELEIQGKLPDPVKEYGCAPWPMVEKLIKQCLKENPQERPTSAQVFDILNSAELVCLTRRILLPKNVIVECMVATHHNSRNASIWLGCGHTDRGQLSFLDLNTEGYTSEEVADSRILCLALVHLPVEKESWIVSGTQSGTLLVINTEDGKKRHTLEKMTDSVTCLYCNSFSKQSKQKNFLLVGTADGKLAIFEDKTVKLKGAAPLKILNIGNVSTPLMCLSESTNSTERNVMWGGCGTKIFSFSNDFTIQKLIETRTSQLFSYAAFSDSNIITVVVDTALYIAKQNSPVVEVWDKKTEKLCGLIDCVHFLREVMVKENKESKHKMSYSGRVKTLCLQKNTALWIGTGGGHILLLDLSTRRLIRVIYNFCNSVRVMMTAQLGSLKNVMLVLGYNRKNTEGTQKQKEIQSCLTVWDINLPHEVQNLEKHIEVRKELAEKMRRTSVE

| Structure (SMILES) | Ki |
| --- | --- |
| O=C(c1cc(OCCF)c(Nc2ncc(C(F)(F)F)c(NC3CC3)n2)cc1F)N1CCOCC1 [Compound 1, (4-(4-(cyclopropylamino)-5-(trifluoromethyl)pyrimidin-2-ylamino)-2-fluoro-5-(2-fluoroethoxy)phenyl)(morpholino) methanone] | 0.6 nM |
| CNc1nc(Nc2cc(C)c(C(=O)N3CCOCC3)cc2OCF)ncc1C(F)(F)F [Compound 2, (5-(fluoromethoxy)-2-methyl-4-(4-(methylamino)-5-(trifluoromethyl)pyrimidin-2-ylamino)phenyl)(morpholino) methanone] | 1 nM |
| CCNc1nc(Nc2cc(OCF)c(C(=O)N3CCCC3)cc2Cl)ncc1C(F)(F)F [Compound 5, (5-chloro-4-(4-(ethylamino)-5-(trifluoromethyl)pyrimidin-2-ylamino)-2-(fluoromethoxy)phenyl)(pyrrolidin-1-yl)methanone] | 1.5 nM |
| CCNc1nc(Nc2cc(OC)c(C(=O)N3CCC(F)(F)C3)cc2OCF)ncc1C(F)(F)F [Compound 6, (3,3-difluoropyrrolidin-1-yl)(4-(4-(ethylamino)-5-(trifluoromethyl)pyrimidin-2-ylamino)-5-(fluoromethoxy)-2-methoxyphenyl)methanone] | 0.4 nM |
| CNc1nc(Nc2cc(C)c(C(=O)N3CCCC3)cc2OCF)ncc1C(F)(F)F [Compound 7, (5-(fluoromethoxy)-2-methyl-4-(4-(methylamino)-5-(trifluoromethyl)pyrimidin-2-ylamino)phenyl)(pyrrolidin-1-yl)methanone] | 0.7 nM |
| CCNc1nc(Nc2cc(OC)c(C(=O)N3CCC(F)(F)C3)cc2OC)ncc1C(F)(F)F [Compound 8, (3,3-difluoropyrrolidin-1-yl)(4-(4-(ethylamino)-5-(trifluoromethyl)pyrimidin-2-ylamino)-2,5-dimethoxyphenyl)methanone] | 1.1 nM |
| CNc1nc(Nc2cc(OC)c(C(=O)N3CCC(F)(F)C3)cc2OCCF)ncc1C(F)(F)F [Compound 9, (3,3-difluoropyrrolidin-1-yl)(5-(2-fluoroethoxy)-2-methoxy-4-((4-(methylamino)-5-(trifluoromethyl)pyrimidin-2-yl)amino)phenyl)methanone] | 1.5 nM |
| CCNc1nc(Nc2cc(F)c(CN3CCOCC3)cc2OCCF)ncc1C(F)(F)F [Compound 10, N4-ethyl-N2-(5-fluoro-2-(2-fluoroethoxy)-4-(morpholinomethyl)phenyl)-5-(trifluoromethyl)pyrimidine-2,4-diamine] | 1.5 nM |
| CNc1nc(Nc2cc(OC)c(C(=O)N3CCCCC3)cc2OCF)ncc1C(F)(F)F [Compound 11, (5-(fluoromethoxy)-2-methoxy-4-(4-(methylamino)-5-(trifluoromethyl)pyrimidin-2-ylamino)phenyl)(piperidin-1-yl)methanone] | 1.6 nM |
| CCNc1nc(Nc2cc(F)c(C(=O)N3CCOCC3)cc2OCCF)ncc1C(F)(F)F [Compound 12, (4-(4-(ethylamino)-5-(trifluoromethyl)pyrimidin-2-ylamino)-2-fluoro-5-(2-fluoroethoxy)phenyl)(morpholino) methanone] | 2 nM |
| CNc1nc(Nc2cc(C)c(C(=O)N3CCOCC3)cc2OCCF)ncc1C(F)(F)F [Compound 13, (5-(2-fluoroethoxy)-2-methyl-4-(4-(methylamino)-5-(trifluoromethyl)pyrimidin-2-ylamino)phenyl)(morpholino) methanone] | 2.3 nM |
| CNc1nc(Nc2cc(OC)c(C(=O)N3CCCC3)cc2OCF)ncc1C(F)(F)F [Compound 14, (5-(fluoromethoxy)-2-methoxy-4-(4-(methylamino)-5-(trifluoromethyl)pyrimidin-2-ylamino)phenyl)(pyrrolidin-1-yl)methanone] | 3.2 nM |
| CNc1nc(Nc2ccc(S(C)(=O)=O)cc2OCCF)ncc1C(F)(F)F [Compound 15, N2-(2-(2-fluoroethoxy)-4-(methylsulfonyl)phenyl)-N4-methyl-5-(trifluoromethyl)pyrimidine-2,4-diamine] | 3.3 nM |
| CCNc1nc(Nc2cc(OCF)c(C(=O)N3CCCC3)cc2F)ncc1C(F)(F)F [Compound 16, (4-(4-(ethylamino)-5-(trifluoromethyl)pyrimidin-2-ylamino)-5-fluoro-2-(fluoromethoxy)phenyl)(pyrrolidin-1-yl)methanone] | 3.4 nM |
| CNc1nc(Nc2cc(F)c(C(=O)N3CCOCC3)cc2OCCF)ncc1C(F)(F)F [Compound 17, (2-fluoro-5-(2-fluoroethoxy)-4-(4-(methylamino)-5-(trifluoromethyl)pyrimidin-2-ylamino)phenyl)(morpholino) methanone] | 3.5 nM |
| CNc1nc(Nc2cc(F)c(CN3CCOCC3)cc2OCCF)ncc1C(F)(F)F [Compound 18, N2-(5-fluoro-2-(2-fluoroethoxy)-4-(morpholinomethyl)phenyl)-N4-methyl-5-(trifluoromethyl)pyrimidine-2,4-diamine] | 3.7 nM |
| CNc1nc(Nc2cc(OC)c(C(=O)N(C)C)cc2OCF)ncc1C(F)(F)F [Compound 19, 5-(fluoromethoxy)-2-methoxy-N,N-dimethyl-4-(4-(methylamino)-5-(trifluoromethyl)pyrimidin-2-ylamino)benzamide] | 4 nM |
| CNc1nc(Nc2cc(OC)c(C(=O)N3CCCC3)cc2OCCF)ncc1C(F)(F)F [Compound 20, (5-(2-fluoroethoxy)-2-methoxy-4-(4-(methylamino)-5-(trifluoromethyl)pyrimidin-2-ylamino)phenyl)(pyrrolidin-1-yl)methanone] | 4.7 nM |

| Structure (SMILES) | Ki |
| --- | --- |
| CNc1nc(Nc2ccc(CN3CCOCC3)cc2OCCF)ncc1C(F)(F)F [Compound 21, N2-(2-(2-fluoroethoxy)-4-(morpholinomethyl)phenyl)-N4-methyl-5-(trifluoromethyl)pyrimidine-2,4-diamine] | 6.6 nM |
| CNc1nc(Nc2cc(F)c(C(=O)N3CCCC3)cc2OCF)ncc1C(F)(F)F [Compound 22, (2-fluoro-5-(fluoromethoxy)-4-(4-(methylamino)-5-(trifluoromethyl)pyrimidin-2-ylamino)phenyl)(pyrrolidin-1-yl)methanone] | 6.5 nM |
| COc1nc(Nc2cc(C)c(C(=O)N3CCCC3)cc2OCF)ncc1Cl [Compound 24, (4-(5-chloro-4-methoxypyrimidin-2-ylamino)-5-(fluoromethoxy)-2-methylphenyl)(pyrrolidin-1-yl)methanone] | 11 nM |
| COc1nc(Nc2ccc(CN3CCOCC3)cc2OCCF)ncc1Cl [Compound 25, 5-chloro-N-(2-(2-fluoroethoxy)-4-(morpholinomethyl)phenyl)-4-methoxypyrimidin-2-amine] | 12 nM |
| COc1nc(Nc2ccc(S(C)(=O)=O)cc2OCCF)ncc1Cl [Compound 26, 5-chloro-N-(2-(2-fluoroethoxy)-4-(methylsulfonyl)phenyl)-4-methoxypyrimidin-2-amine] | 12 nM |
| CNc1nc(Nc2ccc(S(C)(=O)=O)cc2OCCF)ncc1Cl [Compound 27, 5-chloro-N2-(2-(2-fluoroethoxy)-4-(methylsulfonyl)phenyl)-N4-methylpyrimidine-2,4-diamine] | 12 nM |
| COc1nc(Nc2ccc(C(=O)N3CCOCC3)cc2OCCF)ncc1Cl [Compound 28, (4-(5-chloro-4-methoxypyrimidin-2-ylamino)-3-(2-fluoroethoxy)phenyl)(morpholino) methanone] | 15 nM |
| CNc1nc(Nc2cnc(N3CCOCC3)cc2OCCF)ncc1C(F)(F)F [Compound 29, N2-(4-(2-fluoroethoxy)-6-morpholinopyridin-3-yl)-N4-methyl-5-(trifluoromethyl)pyrimidine-2,4-diamine] | 21 nM |
| CNc1nc(Nc2ccc(C(=O)N3CCOCC3)cc2OCCF)ncc1C(F)(F)F [Compound 30, (3-(2-fluoroethoxy)-4-(4-(methylamino)-5-(trifluoromethyl)pyrimidin-2-ylamino)phenyl)(morpholino) methanone] | 2.3 nM |
| CNc1nc(Nc2cnn(C3CCN(CCF)CC3)c2C)ncc1C(F)(F)F [Compound 31, N2-(1-(1-(2-fluoroethyl)piperidin-4-yl)-5-methyl-1H-pyrazol-4-yl)-N4-methyl-5-(trifluoromethyl)pyrimidine-2,4-diamine] | 4.2 nM |
| COc1nc(Nc2cnn(C3CCN(CCF)CC3)c2C)ncc1Cl [Compound 32, 5-chloro-N-(1-(1-(2-fluoroethyl)piperidin-4-yl)-5-methyl-1H-pyrazol-4-yl)-4-methoxypyrimidin-2-amine] | 21 nM |
| CNc1nc(Nc2cn(C3CCN(CCF)CC3)nc2C)ncc1C(F)(F)F [Compound 33, N2-(1-(1-(2-fluoroethyl)piperidin-4-yl)-3-methyl-1H-pyrazol-4-yl)-N4-methyl-5-(trifluoromethyl)pyrimidine-2,4-diamine] | 25 nM |
| CNc1nc(Nc2cnn(C)c2CF)ncc1C(F)(F)F [Compound 34, N2-(5-(fluoromethyl)-1-methyl-1H-pyrazol-4-yl)-N4-methyl-5-(trifluoromethyl)pyrimidine-2,4-diamine] | 24 nM |
| CNc1nc(Nc2cn(CCF)nc2C)ncc1C(F)(F)F [Compound 35, N2-(1-(2-fluoroethyl)-3-methyl-1H-pyrazol-4-yl)-N4-methyl-5-(trifluoromethyl)pyrimidine-2,4-diamine] | 1.1 nM |
| CNc1nc(Nc2cnn(CCF)c2C)ncc1C(F)(F)F [Compound 36, N2-(1-(2-fluoroethyl)-5-methyl-1H-pyrazol-4-yl)-N4-methyl-5-(trifluoromethyl)pyrimidine-2,4-diamine] | 1.8 nM |
| CNc1nc(Nc2ccc(C(=O)N3CCOCC3)cc2OC)ncc1C(F)(F)F [Compound 38, (3-methoxy-4-(4-(methylamino)-5-(trifluoromethyl)pyrimidin-2-ylamino)phenyl)(morpholino) methanone] | 2.7 nM |
| COc1nc(Nc2ccc(C(=O)N3CCOCC3)cc2OCCF)ncc1Cl [Compound 40, (4-((5-chloro-4-methoxypyrimidin-2-yl)amino)-3-(2-fluoroethoxy)phenyl)(morpholino) methanone] | 14 nM |
| [2H]C([2H])(F)C([2H])([2H])n1ncc(Nc2ncc(C(F)(F)F)c(NC)n2)c1C [Compound 48, N2-(1-(2-fluoro-1,1,2,2-tetradeutero-ethyl)-5-methyl-1H-pyrazol-4-yl)-N4-methyl-5-(trifluoromethyl)pyrimidine-2,4-diamine] | 2 nM |
